Columns and labels:
selected integrins = assay: Effect of the aromatised degradation product on the activity of selected integrins
Experimental: (§1) LC-MS injections were performed after 30 min from the preparation of the samples and then after each 1.5 hours, following the experiments for 14 h (Fig. 4). […] As a consequence of the spontaneous aromatization of A, also an increasing amount of B was observed after a short period. The aromatised form B was tested to evaluate its effect on the activity of selected integrins but, as consequence of the absence of a crucial pharmacophore, it was not active. This behaviour doesn’t represent a big issue since strong basic conditions are quite unusual in physiological environment. In fact under stress conditions with a large excess of base, the decomposition of 17b to A occurred in few minutes.

[1] = Stability in water at neutral, basic and acidic pH (LC-MS); format: physicochemical; details: for loss of product: water, after several hours
Experimental: as §1
(§2) Figure 4 Stability of 17b in neutral, basic, acidic and physiological conditions and its possible degradation pathway. Conditions: 17b (0.1 mmol) in 300 µl of solvent (water or bovine serum). 5 eq of LiOH·H2O or HCl 1 M were added.

α5β1 integrin [2] = molecular target: T1, α5β1 integrin (Homo sapiens, UniProt P05556+P08648); assay: Cell adhesion assay: K562 cells to immobilized fibronectin (α5β1 integrin-mediated)
Experimental: (§8) The ability of the synthesized racemic ligands to inhibit the adhesion of K562 cells (human erythroleukemic cells, expressing α5β1 integrin) or SK-MEL-24 cells (human malignant melanoma cells, expressing αvβ3 integrin) to immobilized fibronectin was evaluated[29]. […] In these experiments, the cells were seeded onto plates coated with fibronectin and allowed to adhere before quantitation of the number of adherent cells, in presence of increasing concentrations of the compounds.
(§9) SK-MEL-24 (American Tissue Culture Collection, ATCC, Rockville, MD) were routinely grown in minimum essential medium (MEM, Cambrex, Walkersville, MD) supplemented with 10% fetal bovine serum (FBS), nonessential amino acids, and sodium pyruvate. K-562 (ATCC, Rockville, MD) were maintained as a stationary suspension culture in RPMI-1640 and L-glutamine with 10% FBS (Invitrogen (Carlsbad, CA). Cells were kept at 37 °C in a 5% CO2 humidified atmosphere. Forty hours before experiments, K-562 were treated with 25 ng/mL PMA (Sigma-Aldrich SRL, Milan, Italy) to induce differentiation and to increase expression of cell surface antigens[50].
(§10) Plates (96 wells) (Corning Costar, Celbio, Milan,Italy) were coated by passive adsorption with fibronectin (10 µg/mL) or poly-L-lysine (0.002%) (Sigma-Aldrich SRL) overnight at 4 °C. Cells were counted with a haemocytometer and pre-incubated with different concentrations of each compound or with the vehicle (methanol) for 30 min at room temperature to reach a ligand-receptor equilibrium. Stock solutions (10^–2 M) of the assayed compounds were prepared in phosphate-buffered saline (PBS). […] This product is a chromogenic substrate for β-N-acetylglucosaminidase that is transformed in 4-nitrophenol whose absorbance can be measured at 405 nm. As previously described[51], there is a linear correlation between absorbance and enzymatic activity. Therefore, it is possible to identify the number of adherent cells among treated wells, interpolating the absorbance values of unknowns in a calibration curve. The reaction was blocked by addition of 100 µL of a stopping solution [50 µM glycine and 5 µM EDTA (pH 10.4)], and the plates were read in an EnSpire Multimode Plate Reader (PerkinElmer, Waltham, MA, USA). Experiments were carried out in quadruplicate and repeated at least three times. Data analysis and IC50/EC50 values were calculated using Graph-Pad Prism 5.0 (GraphPad Software, San Diego, CA).

α5β1 integrin [3] = molecular target: T1, α5β1 integrin; assay: α5β1 integrin internalization by confocal microscopy in HEK293 + α5-EGFP cells; format: cell-based; details: compound 1 µM pre-incubated before fibronectin 10 µg/mL
Source text: Integrin trafficking is an important mechanism employed by cells to regulate integrin–extracellular matrix interactions, and thus cellular signalling, during processes such as cell migration and invasion. α5β1 integrin is internalized, trafficked to recycling endosomes and then recycled to the plasma membrane[43],[44]. Membrane trafficking pathways influence α5β1’s ability to promote invasion and metastasis[45],[46]. […]
HEK293 cells (not expressing α5 but endogenously expressing β1 integrin[47],[48] were plated in 6 well plates and at 50–60% confluence were transiently transfected with α5-EGFP plasmid using Lipofectamine2000 transfection reagent (LifeTechnologies). After 48 h from transfection, HEK293 + α5-EGFP cells were assessed to verify integrins expression by flow cytometry (data not shown). α5-EGFP integrin plasmid was a kind gift from Michael Davidson (Addgene plasmid #56423). HEK293 + α5-EGFP cells were treated at 4 °C with fibronectin (10 µg/ml) or the agonist 24 (1 µM) in MEM for 1 hour. Cells exposed to the antagonist 17b (1 µM), before the addition of fibronectin, were pre-incubated with the compound for 20 minutes at 4 °C. […]
(§3) Specimens were embedded in Mowiol and analyzed using a Nikon C1s confocal laser-scanning microscope, equipped with a Nikon PlanApo 60×, 1.4-NA oil immersion lens. […]

[4] = test system: α5β1 integrin-mediated phosphorylation of ERK1/2; assay: α5β1 integrin-mediated ERK1/2 phosphorylation in K562 cells (Western blot); format: cell-based, human; details: K562 cells preincubated with compound 10^−7–10^−9 M, then plated on fibronectin
Experimental: The mechanism by which components of extracellular matrix generate intracellular signalling through integrins requires indeed an increased phosphorylation of cytoplasmatic second messengers. Phosphorylation of ERK1/2 plays a central role in fibronectin-mediated survival signalling through integrins: in fact, cell adhesion activates ERK1/2 by binding of α5β1 integrins at the cell surface to extracellular matrix proteins such as fibronectin. The experiment was performed by serum-starving K562 cells in RPMI-1640 containing 1% FBS for 16 h; thereafter, they were preincubated with compound 17b, 24 (10^−7–10^−9 M) or the vehicle for 60 minutes and then plated for 60 minutes on fibronectin.
Figure 2 (a) Cropped blots related to the effect of compounds 17b and 24 on α5β1 integrin-mediated phosphorylation of ERK1/2 in K562 cells. Cells were serum-starved in RPMI-1640 containing 1% FBS for 16 h; then cells were preincubated with different concentrations of the antagonist 17b (10^−7–10^−9 M) or its vehicle for 1 h in suspension and then were allowed to adhere for 1 h on fibronectin (FN). […] Thereafter cells were lysed and lysates were analysed in Western blot using an antibody directed against phosphorylated ERK1/2 (pERK1/2) or total ERK1/2 (totERK1/2). […]
K562 cells were incubated in RPMI-1640 with 1% FBS for 16 h. […] Digital images were acquired and analyzed following previously reported methods.

[5] = Stability in bovine serum (LC-MS); format: in vitro ADME
Experimental: as §1, §2

αvβ3 integrin = αvβ3 integrin (Homo sapiens, UniProt P05106+P06756); assay: Cell adhesion assay: SK-MEL-24 cells to immobilized fibronectin (αvβ3 integrin-mediated)
Experimental: as §8, §9, §10

HEK293 + α5 cells = assay: Confocal microscopy of FITC-conjugate internalization in HEK293 + α5 cells; format: cell-based, human; details: 0.1–1 μM
Experimental: (§4) In order to visualize the localization of isoxazolines inside the cells and to explore the possibility to use them as shuttles for selective delivery of therapeutic payloads and diagnostics, compound 31 was synthesized conjugating 17b with FITC, as described above. […] In addition, the internalization of compound 31 was concentration-dependent: at a higher concentration (1 μM) it accumulated inside the cells in a greater extent.
(§5) Figure 5 Confocal microscopy images of HEK293 or HEK293 + α5, HEK293 + αvβ3 and K562 cells treated with compound 31 (Cpd 31). […] In the left column of each panel green (FITC) fluorescence was shown, whereas in right one green and blue (DAPI) signals were merged. […] Scale bar: 30 µm. d) Compound 31 internalization was evaluated according to green fluorescence intensity in the cells and is reported in the graph. […]
as §3
(§6) For internalization analysis of ligand 31, the mean fluorescence intensity was related to the background; the relative fluorescence intensity is reported in the graph in Fig. 5.

K562 cells = assay: Confocal microscopy of FITC-conjugate internalization in K562 cells; format: cell-based, human
Experimental: (§7) Figure 5 Confocal microscopy images of HEK293 or HEK293 + α5, HEK293 + αvβ3 and K562 cells treated with compound 31 (Cpd 31). Cells were exposed to compound 31 (0.1–1 μM) or its vehicle for 60 minutes at 4 °C and thereafter cells were moved to 37 °C for 15 minutes to promote integrin internalization and fixed as described in Methods. a) Compound 31, conjugated with FITC was able to enter the cells in α5 integrin-dependent manner: it was internalized in HEK293 + α5 but not in HEK293 cells. Right Panels: HEK293 cells not expressing α5 integrin subunit. Left Panels: HEK293 + α5. b) Concentration-dependent internalization of compound 31 was observed also in K562 cancer cells, endogenously expressing α5β1 integrin. […] In the left column of each panel green (FITC) fluorescence was shown, whereas in right one green and blue (DAPI) signals were merged. Nuclei were counterstained with DAPI. Scale bar: 30 µm. d) Compound 31 internalization was evaluated according to green fluorescence intensity in the cells and is reported in the graph. […]
as §3, §6

HEK293 + αvβ3 cells = assay: Confocal microscopy of FITC-conjugate internalization in HEK293 + αvβ3 cells; format: cell-based, human; details: HEK293 + αvβ3 cells not expressing α5β1, 0.1–1 μM
Experimental: as §7, §3, §6

HEK293 cells = assay: Confocal microscopy of FITC-conjugate internalization in HEK293 cells not expressing α5; format: cell-based, human; details: HEK293 cells that do not express α5 integrin, 0.1–1 μM
Experimental: as §4, §5, §3, §6

[6] = K562 cell adhesion to fibronectin

T1 sequence (P08648 42-894 limits assumed): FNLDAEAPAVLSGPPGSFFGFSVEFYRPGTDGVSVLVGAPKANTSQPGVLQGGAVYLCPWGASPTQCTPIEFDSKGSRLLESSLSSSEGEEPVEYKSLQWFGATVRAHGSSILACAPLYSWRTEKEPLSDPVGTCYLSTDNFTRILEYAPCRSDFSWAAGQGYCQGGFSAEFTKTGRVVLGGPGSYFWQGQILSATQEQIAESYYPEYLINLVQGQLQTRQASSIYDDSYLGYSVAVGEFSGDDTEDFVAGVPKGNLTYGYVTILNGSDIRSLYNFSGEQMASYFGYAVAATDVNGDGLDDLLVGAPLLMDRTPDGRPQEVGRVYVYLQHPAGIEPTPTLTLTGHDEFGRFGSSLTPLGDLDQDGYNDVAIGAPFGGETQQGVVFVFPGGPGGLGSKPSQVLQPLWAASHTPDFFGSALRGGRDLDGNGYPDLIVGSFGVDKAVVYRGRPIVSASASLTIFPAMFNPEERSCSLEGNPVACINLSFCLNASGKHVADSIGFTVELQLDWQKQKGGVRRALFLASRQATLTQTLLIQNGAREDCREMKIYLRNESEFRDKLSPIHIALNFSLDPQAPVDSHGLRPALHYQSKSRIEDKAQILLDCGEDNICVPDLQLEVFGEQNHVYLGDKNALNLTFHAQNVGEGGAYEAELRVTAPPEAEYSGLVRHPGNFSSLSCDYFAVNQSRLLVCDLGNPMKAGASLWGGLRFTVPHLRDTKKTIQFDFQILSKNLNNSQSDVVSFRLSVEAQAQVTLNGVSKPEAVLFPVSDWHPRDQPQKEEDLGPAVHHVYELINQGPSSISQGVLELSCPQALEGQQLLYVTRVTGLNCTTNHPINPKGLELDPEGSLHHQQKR
T1 sequence (P08648 895-1049 partner limits assumed): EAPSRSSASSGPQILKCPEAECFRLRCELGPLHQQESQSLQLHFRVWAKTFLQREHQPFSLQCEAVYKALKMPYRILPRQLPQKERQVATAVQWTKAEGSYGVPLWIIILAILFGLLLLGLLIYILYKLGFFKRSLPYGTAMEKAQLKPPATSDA
T1 sequence (P05556 21-798): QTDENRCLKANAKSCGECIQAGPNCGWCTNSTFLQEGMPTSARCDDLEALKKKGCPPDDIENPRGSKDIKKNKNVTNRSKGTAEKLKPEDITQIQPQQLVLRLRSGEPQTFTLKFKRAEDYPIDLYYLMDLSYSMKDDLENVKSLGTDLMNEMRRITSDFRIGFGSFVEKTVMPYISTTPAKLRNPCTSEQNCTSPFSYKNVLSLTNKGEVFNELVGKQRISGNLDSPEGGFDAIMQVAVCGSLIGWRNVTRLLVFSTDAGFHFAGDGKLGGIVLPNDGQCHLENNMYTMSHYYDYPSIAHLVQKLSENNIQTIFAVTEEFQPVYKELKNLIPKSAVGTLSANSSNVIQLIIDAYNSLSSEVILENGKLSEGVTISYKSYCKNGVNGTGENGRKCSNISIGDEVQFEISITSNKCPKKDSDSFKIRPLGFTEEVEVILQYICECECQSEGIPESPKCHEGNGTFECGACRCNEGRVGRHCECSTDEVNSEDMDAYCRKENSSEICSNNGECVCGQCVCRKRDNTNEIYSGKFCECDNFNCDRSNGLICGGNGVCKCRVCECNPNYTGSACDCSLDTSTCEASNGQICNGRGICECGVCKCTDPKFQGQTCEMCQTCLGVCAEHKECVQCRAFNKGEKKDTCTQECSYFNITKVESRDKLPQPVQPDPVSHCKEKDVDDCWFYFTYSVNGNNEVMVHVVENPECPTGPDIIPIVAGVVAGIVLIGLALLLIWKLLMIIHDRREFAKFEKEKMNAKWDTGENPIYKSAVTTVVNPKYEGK
Chain of αvβ3 integrin (P06756 31-889 limits assumed): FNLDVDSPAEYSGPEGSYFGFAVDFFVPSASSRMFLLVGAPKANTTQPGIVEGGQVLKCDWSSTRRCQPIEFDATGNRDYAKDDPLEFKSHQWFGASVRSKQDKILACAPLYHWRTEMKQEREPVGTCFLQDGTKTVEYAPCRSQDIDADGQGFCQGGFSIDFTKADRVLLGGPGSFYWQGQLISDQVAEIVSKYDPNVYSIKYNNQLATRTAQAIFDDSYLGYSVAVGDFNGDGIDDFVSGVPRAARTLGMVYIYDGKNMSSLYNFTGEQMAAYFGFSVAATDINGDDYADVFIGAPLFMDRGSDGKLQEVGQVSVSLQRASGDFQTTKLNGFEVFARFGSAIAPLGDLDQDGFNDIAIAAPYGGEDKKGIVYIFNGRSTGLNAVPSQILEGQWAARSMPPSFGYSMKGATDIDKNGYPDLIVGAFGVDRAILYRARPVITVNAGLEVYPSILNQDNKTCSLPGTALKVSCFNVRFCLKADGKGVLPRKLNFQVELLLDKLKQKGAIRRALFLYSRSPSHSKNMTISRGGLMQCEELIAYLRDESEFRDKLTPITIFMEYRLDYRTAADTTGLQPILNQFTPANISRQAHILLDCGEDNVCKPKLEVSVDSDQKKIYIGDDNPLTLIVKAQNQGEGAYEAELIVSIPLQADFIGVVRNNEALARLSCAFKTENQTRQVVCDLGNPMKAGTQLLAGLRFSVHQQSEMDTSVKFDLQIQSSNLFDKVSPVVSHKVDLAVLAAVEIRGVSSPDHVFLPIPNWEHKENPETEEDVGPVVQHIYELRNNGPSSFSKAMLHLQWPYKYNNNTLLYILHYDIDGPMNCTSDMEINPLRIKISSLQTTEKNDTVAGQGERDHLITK
Chain of αvβ3 integrin (P06756 891-1048 partner limits assumed): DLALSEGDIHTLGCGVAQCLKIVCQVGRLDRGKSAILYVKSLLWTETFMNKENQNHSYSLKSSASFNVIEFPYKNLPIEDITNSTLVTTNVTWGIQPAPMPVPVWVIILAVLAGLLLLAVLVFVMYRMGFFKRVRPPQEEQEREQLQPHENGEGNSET
Chain of αvβ3 integrin (P05106 27-788): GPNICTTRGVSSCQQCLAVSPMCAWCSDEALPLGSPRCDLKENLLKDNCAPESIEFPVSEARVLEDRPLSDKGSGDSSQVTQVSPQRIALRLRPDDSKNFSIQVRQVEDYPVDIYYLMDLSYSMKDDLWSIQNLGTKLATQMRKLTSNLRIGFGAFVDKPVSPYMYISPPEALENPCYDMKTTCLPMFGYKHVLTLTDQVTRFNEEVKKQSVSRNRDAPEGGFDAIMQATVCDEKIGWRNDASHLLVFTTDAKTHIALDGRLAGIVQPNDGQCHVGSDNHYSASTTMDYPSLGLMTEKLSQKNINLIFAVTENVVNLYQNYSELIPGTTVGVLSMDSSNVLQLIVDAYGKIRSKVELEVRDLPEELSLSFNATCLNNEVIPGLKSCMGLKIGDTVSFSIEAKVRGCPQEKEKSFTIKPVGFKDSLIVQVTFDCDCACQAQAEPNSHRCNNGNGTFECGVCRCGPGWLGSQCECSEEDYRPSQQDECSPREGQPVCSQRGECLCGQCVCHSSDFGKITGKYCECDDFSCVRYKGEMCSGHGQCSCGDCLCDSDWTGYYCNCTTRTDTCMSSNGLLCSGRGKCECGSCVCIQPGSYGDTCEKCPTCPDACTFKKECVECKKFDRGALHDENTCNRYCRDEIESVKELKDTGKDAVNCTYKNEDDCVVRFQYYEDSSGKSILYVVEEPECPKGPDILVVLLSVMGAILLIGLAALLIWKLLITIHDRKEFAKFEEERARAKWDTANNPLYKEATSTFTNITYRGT

SMILES: Cc1onc(CCCc2cn(CCCNC(=O)OC(C)(C)C)nn2)c1C(=O)NCc1ccc(N)cc1 [B]
- effect on the activity of selected integrins (selected integrins): not active

SMILES: CC1=C(C(=O)NCc2ccc(N)cc2)C(CCCc2cn(CCCNC(=O)OC(C)(C)C)nn2)N(C(=O)CC(=O)O)O1 (stereo not drawn) [Compound 17b]
- loss of product ([1]; acidic treatment (pH=3, HCl)): 5%
- loss of product ([1]; neutral conditions (pH=7)): 5%
- decomposition to A ([1]; stress conditions with a large excess of base): few minutes
- IC50 (α5β1 integrin [2]): 0.0027 ± 0.0004 µM
- α5β1 behaviour (agonist/antagonist) (α5β1 integrin [2]; [6]): antagonist
- effect on fibronectin-induced α5β1 integrin internalization (α5β1 integrin [3]): prevented integrin internalization
- fibronectin-induced ERK1/2 phosphorylation levels [4]: significant concentration-dependent reduction
- stability in bovine serum [5]: no significant degradation
- IC50 (αvβ3 integrin): > 1000 µM

SMILES: CC1=C(C(=O)NCc2ccc(N)cc2)C(CCCc2cn(CCCNC(=S)Nc3ccc(-c4c5ccc(=O)cc-5oc5cc(O)ccc45)c(C(=O)O)c3)nn2)N(C(=O)CC(=O)O)O1 (stereo not drawn) [Compound 31]
- intracellular localization / internalization (HEK293 + α5 cells): localized in the cell cytoplasm
- IC50 (α5β1 integrin [2]): 0.13 ± 0.01 µM
- α5β1 behaviour (agonist/antagonist) (α5β1 integrin [2]; [6]): antagonist
- α5β1 IC50/EC50 (IC50 for antagonists) (α5β1 integrin [2]; K562 cell adhesion to fibronectin, antagonists, also >1000 cells with behaviour not given, mean ± SD): 0.13 ± 0.01 µM
- internalization (K562 cells; 0.1–1 μM): internalized in K562 cells in a concentration-dependent way
- internalization (HEK293 + αvβ3 cells): not able to be internalized
- internalization (HEK293 cells): not able to enter

SMILES: CC[C@@]1([C@@H]2O[C@@H]([C@H]3O[C@@](O)(CO)[C@H](C)C[C@@H]3C)C[C@@H]2C)CC[C@H]([C@]2(C)CC[C@]3(C[C@H](O)[C@@H](C)[C@@H]([C@@H](C)[C@@H](OC)[C@H](C)C(=O)O)O3)O2)O1 [monensin, reference compound]
- effect on compound 31 internalization (K562 cells; monensin 2 µM for 2 h): significantly inhibited

Source: paper PMC7198601, “Side chain effect in the modulation of αvβ3/α5β1 integrin activity via clickable isoxazoline-RGD-mimetics: development of molecular delivery systems” (Scientific Reports, 2020)
